Results: US20210228560A1 (Centogene IP GmbH, priority 2011, published 2021)
Numbering of substitutions follows the chain as printed. Values joined by “and” are separate entries in the source; they are usually repeats but may differ in a detail not shown here. Equal values may be shown once. Read-outs that look alike come from different tables or passages of the source. Each block holds one compound with its values, some of them ahead of it.

Legend:
hexosaminidase A = target: T1, hexosaminidase A (Homo sapiens, UniProt P06865+P07686); conditions: cited from earlier work
T1 sequence (P06865 89-529): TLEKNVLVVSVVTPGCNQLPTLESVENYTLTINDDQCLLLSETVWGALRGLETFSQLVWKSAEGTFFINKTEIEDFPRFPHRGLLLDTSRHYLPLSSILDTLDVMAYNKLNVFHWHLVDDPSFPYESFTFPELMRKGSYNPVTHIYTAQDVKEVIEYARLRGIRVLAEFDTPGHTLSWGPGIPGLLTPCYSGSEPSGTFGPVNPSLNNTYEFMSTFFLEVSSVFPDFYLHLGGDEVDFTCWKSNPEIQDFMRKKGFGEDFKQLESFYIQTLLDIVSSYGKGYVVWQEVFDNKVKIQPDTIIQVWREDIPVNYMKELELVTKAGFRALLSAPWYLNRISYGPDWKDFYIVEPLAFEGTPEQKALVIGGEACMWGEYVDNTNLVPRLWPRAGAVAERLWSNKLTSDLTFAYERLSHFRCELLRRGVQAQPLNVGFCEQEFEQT
T1 sequence (P07686 122-556): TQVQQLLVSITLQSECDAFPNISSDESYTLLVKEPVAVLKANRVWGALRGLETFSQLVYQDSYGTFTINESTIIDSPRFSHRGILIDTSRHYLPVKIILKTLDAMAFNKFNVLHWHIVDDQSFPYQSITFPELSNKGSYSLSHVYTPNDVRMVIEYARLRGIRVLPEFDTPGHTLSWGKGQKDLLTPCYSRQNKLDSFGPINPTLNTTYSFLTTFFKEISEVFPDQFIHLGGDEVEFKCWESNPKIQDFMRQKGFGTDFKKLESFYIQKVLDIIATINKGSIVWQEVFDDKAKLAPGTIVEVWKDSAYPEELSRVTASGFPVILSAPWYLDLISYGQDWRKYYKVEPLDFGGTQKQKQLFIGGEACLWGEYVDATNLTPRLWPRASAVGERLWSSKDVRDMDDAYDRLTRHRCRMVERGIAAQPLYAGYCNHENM

[1] = target: acid α-glucosidase mutants (Homo sapiens, UniProt P10253, Y455F); format: cell-based; conditions: 20 μM DNJ + 40 μM compound; FIG. 11
acid α-glucosidase mutants (Homo sapiens, UniProt P10253, Y455F), sequence (P10253 70-952 Y455F): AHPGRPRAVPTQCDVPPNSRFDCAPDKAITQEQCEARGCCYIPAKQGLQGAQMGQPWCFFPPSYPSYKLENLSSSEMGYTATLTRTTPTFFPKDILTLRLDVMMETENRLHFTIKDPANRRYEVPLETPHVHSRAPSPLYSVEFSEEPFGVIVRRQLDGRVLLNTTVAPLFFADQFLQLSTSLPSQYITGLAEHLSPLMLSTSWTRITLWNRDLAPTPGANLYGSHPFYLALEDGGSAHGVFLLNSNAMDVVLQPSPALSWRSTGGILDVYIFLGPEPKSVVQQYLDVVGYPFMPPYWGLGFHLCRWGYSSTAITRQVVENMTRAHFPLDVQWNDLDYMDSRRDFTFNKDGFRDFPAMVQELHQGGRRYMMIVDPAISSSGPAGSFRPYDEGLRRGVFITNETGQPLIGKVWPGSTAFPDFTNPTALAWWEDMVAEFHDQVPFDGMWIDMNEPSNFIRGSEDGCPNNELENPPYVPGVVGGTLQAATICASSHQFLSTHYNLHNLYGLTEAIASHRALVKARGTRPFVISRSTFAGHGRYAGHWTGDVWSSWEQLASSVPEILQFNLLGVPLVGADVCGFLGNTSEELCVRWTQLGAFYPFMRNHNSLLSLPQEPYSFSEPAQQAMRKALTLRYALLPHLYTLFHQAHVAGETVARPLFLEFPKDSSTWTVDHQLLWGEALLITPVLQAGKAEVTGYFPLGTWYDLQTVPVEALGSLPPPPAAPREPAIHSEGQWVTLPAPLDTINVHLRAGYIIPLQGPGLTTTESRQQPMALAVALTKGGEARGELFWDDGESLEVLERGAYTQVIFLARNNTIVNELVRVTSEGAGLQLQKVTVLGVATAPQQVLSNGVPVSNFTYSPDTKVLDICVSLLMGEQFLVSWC
Protocol: (§1) A bacterial clone containing the full length cDNA of […] (IRATp970C0971D, aligned to accession no. NM_000152.3, GeneBank) was received form ImaGenes GmbH, Berlin, Germany. Amplification was performed with the primers 5′-TAGGAGCTGTCCAGGCCATC-3′ (SEQ ID NO:3) and 5′-GAGAGACTAACACACTCCGC-3′ (SEQ ID NO:4). The PCR was carried out using iProof DNA Polymerase (BioRad). The cDNA was subcloned into pCRII TA TOPO vector (Invitrogen). Prior to ligation, the cDNA insert was incubated with Taq polymerase (Qiagen) to add a poly (A) overhang at the 3′-end for TA-cloning. For expression, the GAA cDNA was ligated into target vector pcDNA3.1/V5-His6 (Invitrogen) using sticky end ligation utilizing unique restriction sites (HindIII, XhoI) offered by both vectors multiple cloning sites.
(§2) Sample preparation was carried out analogously to the α-galactosidase A recordings. As substrate, a 1.3 mg 4-Methylumbelliferyl-α-D-Glukopyranoside/ml solution (in sodium acetate buffer, pH 4.0) was used and 5 μg sample/reaction were added. The reaction was incubated for 60 minutes at 37° C. and stopped with 1M Glycine-NaOH, pH 10.5.

[2] = Plasma concentration and absorption (literature); format: in vivo, human; conditions: 32 mg tablet; estimate
[3] = cited from earlier work
[4] = tested on: GLA mutants (alpha-galactosidase A); conditions: for enzyme activity of GLA mutants, compound in combination with DGJ: 40 μM compound + 20 μM DGJ, compared to DGJ alone, DGJ-responsive mutants, FIG. 3, FIG. 6
GLA[A156V] = target: T2, GLA[A156V] (Homo sapiens, UniProt P06280, A156V); format: cell-based; conditions: for mutant enzyme activity in combination with DGJ: concentration of SF-54B and SF-55C 10 μM and 40 μM, respectively; for mutant enzyme activity in combination with DGJ, concentration series: increasing concentrations of compound with DGJ, FIG. 10
T2 sequence (P06280 32-429 A156V): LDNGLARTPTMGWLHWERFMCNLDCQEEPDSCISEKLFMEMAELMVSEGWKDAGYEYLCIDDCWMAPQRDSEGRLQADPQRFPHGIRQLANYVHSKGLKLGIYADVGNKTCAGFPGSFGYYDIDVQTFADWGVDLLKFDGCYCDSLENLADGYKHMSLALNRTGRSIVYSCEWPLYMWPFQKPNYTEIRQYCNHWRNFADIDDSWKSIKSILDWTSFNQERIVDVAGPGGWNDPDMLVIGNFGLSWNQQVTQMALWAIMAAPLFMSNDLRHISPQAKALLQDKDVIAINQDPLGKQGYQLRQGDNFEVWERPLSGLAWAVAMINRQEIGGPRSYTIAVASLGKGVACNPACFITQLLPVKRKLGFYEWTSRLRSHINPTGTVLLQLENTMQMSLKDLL

GLA[R301G] = target: T3, GLA[R301G] (Homo sapiens, UniProt P06280, R301G); format: cell-based
T3 sequence (P06280 32-429 R301G): T2 sequence (P06280 32-429 A156V) with V125A, R270G

Alpha-Gal A = conditions: grown in the presence of DGJ, cited from earlier work
GLA = conditions: patient lymphoblasts; cited from earlier work
mutant GLA [5] = conditions: washout two hours prior to assay; cited from earlier work
mutant GLA [6] = conditions: cell-free; cited from earlier work
[7] = target: acid α-glucosidase mutants (Homo sapiens, UniProt P10253, L552P); format: cell-based; conditions: 20 μM DNJ + 40 μM compound; FIG. 11B
acid α-glucosidase mutants (Homo sapiens, UniProt P10253, L552P), sequence (P10253 70-952 L552P): as the sequence (P10253 70-952 Y455F) above, with F386Y, L483P counted along it
Protocol: as §1, §2

[8] = tested on: acid α-glucosidase mutants; format: cell-based; conditions: 20 μM NB-DNJ alone; FIG. 7A
Protocol: as §1, §2

[9] = value with superscript 2 (mark not explained)
[10] = value with superscript 1 (mark not explained)

Compound: CC(=O)NC1CNC(CO)[C@@H](O)C1O (stereo partly drawn) [2-Acetamido-1,2-dideoxynojirimycin]
Ki (hexosaminidase A; [9]): 700 nM

Compound: CC(=O)NC1C(O)NC(CO)[C@@H](O)C1O (stereo partly drawn) [2-Acetamido-2-deoxynojirimycin (ADNJ), 2-Acetamido-2-deoxynojirimycin]
Ki (hexosaminidase A; [9]): 5 nM

Compound: CC(=O)NC1CN2CC[C@H](O)C2[C@@H](O)C1O (stereo partly drawn) [6-Acetamido-6-deoxycastanospermine]
IC50 (hexosaminidase A; [10]): 500 nM

increase in the activity of acid α-glucosidase mutant Y455F, compound with DNJ compared to DNJ alone [1]: comparable | resulting concentration referring to blood volume after first pass loss [2]: approximately 0.7 μM
Compound: CN(Cc1cc(Br)cc(Br)c1N)C1CCCCC1 [Bromhexine, 2,4-dibromo-6-{[cyclohexyl(methyl)amino]methyl}aniline]
intestinal absorption ([3]; 32 mg tablet (77.6 μmol)): 22-27% | concentration of bromhexine ([3]; Bechgaard et al.): 80 nM | difference of protein activity between Bromhexine and DGJ and Ambroxol and DGJ ([4]; 40 μM Bromhexine or Ambroxol + 20 μM DGJ, FIG. 6): no significant difference | alpha-Galactosidase A activity of mutant GLAs, bromhexine alone ([4]; 40 μM Bromhexine without DGJ, FIG. 6): no effect | enzyme activity of GLA mutants, compound in combination with DGJ [4]: significantly increased | enzyme activity of GLA mutants, compound in combination with DGJ ([4]; listed as bromhexine): increased

Compound: OC[C@H]1NC[C@H](O)[C@@H](O)[C@H]1O [DGJ, 1-Deoxygalactonojirimycin]
increase of GLA[A156V] activity (GLA[A156V]; 20 μM DGJ alone, no Ambroxol, untreated = 1.0, FIG. 5A): 3.8 fold and 4 fold | concentration of DGJ reaching the same effect as 20 μM DGJ alone (GLA[A156V]; with 40 μM Ambroxol in addition, GLA[A156V]): 8.9 µM | increase of GLA[R301G] activity (GLA[R301G]; 20 μM DGJ without Ambroxol, untreated = 1.0, FIG. 5B): 2.8 fold | concentration of DGJ sufficient to reach the level of 20 μM DGJ alone (GLA[R301G]; in combination with 40 μM Ambroxol, mutant not named in the block): 4.72 µM | share of the DGJ concentration needed compared to DGJ alone (GLA[R301G]; in combination with 40 μM Ambroxol, same increase of protein activity): ~25% | Alpha-Gal A activity (Alpha-Gal A; other mutations): unaffected | Alpha-Gal A activity (Alpha-Gal A; several mutations): more than 50 % of normal | concentration beyond which GLA activity decreases (GLA): > 100 µM | concentration tolerated without any detectable inhibition of the tested mutant enzyme (mutant GLA [5]): up to 1 mM | dosages already inhibiting (mutant GLA [6]): below 1 μM | clinically achievable concentration ([3]; clinical trials, Wu et al.): 10 µM

Compound: CC(=O)N[C@H]1C(O)O[C@H](CO)[C@H](O)[C@@H]1O (stereo partly drawn) [N-Acetyl-galactosamine (GalNAc), N-Acetyl-galactosamine]
Ki (hexosaminidase A; [10]): 1.9 nM

mutant enzyme activity in combination with DGJ (GLA[A156V]; 20 μM DGJ, FIG. 9): high increase | mutant enzyme activity in combination with DGJ, concentration series (GLA[A156V]): high increase | increase in the activity of acid α-glucosidase mutant Y455F, compound with DNJ compared to DNJ alone [1]: comparable
Compound: CN(Cc1cc(C#N)cc(C#N)c1N)C1CCCCC1 [SF-54B]

mutant enzyme activity in combination with DGJ (GLA[A156V]; 20 μM DGJ, FIG. 9): high increase | mutant enzyme activity in combination with DGJ, concentration series (GLA[A156V]): high increase | increase in the activity of acid α-glucosidase mutant Y455F, compound with DNJ compared to DNJ alone [1]: comparable
Compound: CN(Cc1cc(C#N)cc(Br)c1N)C1CCCCC1 [SF-55C]

concentration in combination with DGJ giving an increase as high as Ambroxol at up to 10 μM with DGJ (GLA[A156V]; 20 μM DGJ, FIG. 9): 1 µM
Compound: Cc1cc(C)cc(-c2cc(CN(C)C3CCCCC3)c(N)c(-c3cc(C)cc(C)c3)c2)c1 [SF-80]

increase in the activity of mutant L552P, compound with DNJ compared to DNJ only [7]: higher | increase in the activity of acid α-glucosidase mutant Y455F, compound with DNJ compared to DNJ alone [1]: comparable
Compound: N#Cc1cc(C#N)c(N)c(CNC2CCC(O)CC2)c1 (stereo not drawn) [SF-124B]

mutant enzyme activity in combination with DGJ, concentration series (GLA[A156V]): high increase | increase in the activity of mutant L552P, compound with DNJ compared to DNJ only [7]: higher | increase in the activity of acid α-glucosidase mutant Y455F, compound with DNJ compared to DNJ alone [1]: higher
Compound: CC(=O)Nc1c(Br)cc(Br)cc1CN(C)C1CCCCC1 [SF-150B]

mutant enzyme activity in combination with DGJ, concentration series (GLA[A156V]): high increase | increase in the activity of mutant L552P, compound with DNJ compared to DNJ only [7]: higher | increase in the activity of acid α-glucosidase mutant Y455F, compound with DNJ compared to DNJ alone [1]: higher
Compound: CC(=O)OC1CCC(NCc2cc(Br)cc(Br)c2N)CC1 (stereo not drawn) [SF-153B]

Compound: N-butyl-DNJ [NB-DNJ]
enzyme activity of mutations Y455F, P545L and L552P, NB-DNJ [8]: significantly increased
